For one compound, IC50 results are on record in paper PMC11134331, “Cell-active small molecule inhibitors validate the SNM1A DNA repair nuclease as a cancer target” (Chemical Science, 2024).

The target of this assay is T1, SNM1A (Homo sapiens, UniProt Q6PJP8).
T1 sequence (Q6PJP8 676-1040): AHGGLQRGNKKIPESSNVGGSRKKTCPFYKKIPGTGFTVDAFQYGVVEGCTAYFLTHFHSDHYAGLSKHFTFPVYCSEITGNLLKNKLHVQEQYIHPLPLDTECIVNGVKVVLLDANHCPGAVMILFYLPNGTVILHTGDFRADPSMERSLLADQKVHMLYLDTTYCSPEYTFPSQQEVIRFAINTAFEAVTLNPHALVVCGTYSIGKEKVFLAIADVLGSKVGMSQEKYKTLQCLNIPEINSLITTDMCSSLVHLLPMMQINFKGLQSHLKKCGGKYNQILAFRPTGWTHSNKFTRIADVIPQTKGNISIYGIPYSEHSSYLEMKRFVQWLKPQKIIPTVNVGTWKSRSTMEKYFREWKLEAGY
Description: real-time fluorescence-based nuclease assay, SNM1A. Set-up: DNA encoding for the MBL and β-CASP domains of SNM1A (aa 676–1040) was cloned into the baculovirus transfer vector pFB-LIC-Bse; inferred from vector pFB-LIC-Bse and the IMAC purification; made in house; host or cells: Sf9 insect cells (baculovirus). The format is biochemical. As to conditions: SNM1A IC50, real-time fluorescence-based nuclease assay; resynthesised compounds. The method, then: In brief, the fluorescence-based nuclease assay utilises a chemically modified 20-nucleotide ssDNA substrate with a fluorescein isothiocyanate (FITC) derived 5′-group and an internal black-hole-quencher-1 (BHQ-1), located eight nucleotides distal to the fluorescein group. In the intact substrate the BHQ-1 suppresses fluorescence, however, exonucleolytic digestion of the substrate from the 5′ end by SNM1A uncouples the BHQ-1 and FITC moieties (see Fig. 1D). Spectra were measured every 140 seconds with an increase in fluorescence indicating enzymatic activity by SNM1A (concentration: 0.1 nM).
Fluorescence-based nuclease digestion SNM1A–C assays were performed as described.[30,45] In the case of SNM1A and SNM1B, a 20-mer oligonucleotide with a 5′ FITC-conjugated-T and an internal BHQ-1 (black hole quencher) conjugated-T, eight nucleotides distal (3′) to the fluor was utilised; whereas for SNM1C a 20-mer oligonucleotide with a 5′ FITC-conjugated-T and a 3′ BHQ-1(black hole quencher) was used to capture all possible endonucleolytic incisions. Reactions (25 μL) were performed in 384 well microplates in nuclease buffer (20 mM HEPES-KOH pH 7.5, 50 mM KCl, 10 mM MgCl2, 0.5 mM TCEP, 0.05% (v/v) Triton-X, 0.1 mg mL^−1 BSA, 5% (v/v) glycerol) with SNM1A/B/C (0.1 nM SNM1A, 0.5 nM SNM1B and 1 nM SNM1C) as indicated. Proteins were incubated for 10 min at RT with the stated compound where applicable, before the reaction was initiated with the addition of 10 nM DNA substrate. […] Fluorescence spectra were measured every 140 s, for 35 min, at 37 °C. The fluorescence intensity of each well was plotted against compound concentration and fitted using a log (inhibitor) response curve using GraphPad Prism software (GraphPad Software, Inc., La Jolla, CA, USA).

`C[C@H](Nc1nc(NCc2ccco2)nc2ccc(Cl)cc12)C(=O)NO` [compound 19] had an IC50 of 44 µM.

As usually defined, the IC50 is the concentration at which inhibition is half-maximal.
